Reference: patent US20160007541A1, “Increasing Harvest (Yield) of Crop Plants Utilizing Thermodynamic Laws on a Whole Plant Basis to Detect Optimal Periods for Exothermic Energy Versus Endothermic Energy Needs” (Stoller Enterprises, Inc., priority 2014, published 2016)

Tested on: tomato plants
Experiment: Tomato yield, Brix and taste after cobalt via drip irrigation (Table 4)
Format: in vivo
Details: base fertility plus cobalt @ 1 pt/acre over 5 weeks

## [Co] [cobalt]
Base 2
  Taste test 14 scientific personnel: 2.8
Base 4.8
  % Brix (sugars): 5.5%
Base 29.6
  Yield (No. of tons per acre): 33.9 tons per acre
Base 244
  Yield (number of tomato fruits per acre × 1,000): 288 fruits per acre × 1,000
